Laboratory results from patent publication US12668594B2, “TYK2 inhibitors and uses thereof” (Sudo Biosciences Limited, priority 2020, dated 2026).

What was measured:
[1] = molecular target: T1, TYK2 (Homo sapiens, UniProt P29597); experiment: HEK-Blue IFNα/β reporter assay (SEAP) for TYK2 pseudokinase inhibition; format: cell-based; details: HEK-Blue IFNα/β cells, 1 ng/mL human recombinant IFNα
Summary of the method: (§1)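 HEK-Blue cells carrying cytokine receptor and STAT3 or STAT1 SEAP reporter, pretreated 60 min with compound, then stimulated with 10 ng/mL IL-23 (22–24 h) or 1 ng/mL IFNα (16–18 h). SEAP read with QUANTI-Blue; IC50 by non-linear regression versus no-inhibitor and unstimulated controls.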

[2] = molecular target: T2, TYK2-JH1 (Homo sapiens, UniProt P29597); experiment: HTRF-based selectivity assay, TYK2 catalytic domain; format: biochemical; details: kinase domain (JH1), ATP 20 μM
T2 construct: recombinant purified His or GST-tagged catalytic domain for each enzyme; made in house
T2 sequence (P29597 897-1176 limits assumed): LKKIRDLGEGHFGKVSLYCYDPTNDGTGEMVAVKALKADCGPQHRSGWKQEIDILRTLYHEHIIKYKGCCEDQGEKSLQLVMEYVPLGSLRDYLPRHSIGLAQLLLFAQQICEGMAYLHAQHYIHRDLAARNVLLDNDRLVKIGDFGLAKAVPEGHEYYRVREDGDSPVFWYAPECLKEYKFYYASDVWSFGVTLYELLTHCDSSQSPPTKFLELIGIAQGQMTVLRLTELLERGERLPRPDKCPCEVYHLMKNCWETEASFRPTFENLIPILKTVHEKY
Protocol: (§2) The ability of compounds to inhibit the activity of JAK1, JAK2, JAK3 and TYK2 is measured using a recombinant purified His or GST-tagged catalytic domain for each enzyme (JAK1, JAK2 and TYK2 are generated in-house; JAK3 was purchased from Carna biosciences, Cat #08-046) in an HTRF format biochemical assay. The reactions employs a commercial peptide substrate from Cisbio (Cat #62TK0PEC). The basic assay protocol is as follows: first, 2.5 µL of diluted compounds (4×) in DMSO are dispensed into a 384-well Optiplate. Next, 2.5 μL of enzyme (final concentrations for enzymes are: TYK2-700 ng/mL, JAK1-80.6 ng/mL, JAK2-2.1 ng/mL and JAK3-171.8 ng/mL) is added and incubated at RT for 5-20 min. Finally, 5 μl of mixture of 2×ATP [Final concentration 20 μM for TYK2, 21.43 μM for JAK1, 14.7 μM for JAK2 and 2.12 μM for JAK3]+2× Substrate [Final concentration 217 nM for TYK2, 454.7 nM for JAK1, 200 nM for JAK2 and 257.4 nM for JAK3] is added to 384 well Optiplate. Composition of Kinase assay buffer used in the assay is as follows: HEPES 50 mM, EGTA 1 mM, MgCl2 10 mM, DTT2 mM, Tween-20 0.010 and water. Then the plates are shaken and then incubated at 26.5° C. for 60 min. At the end of the incubation, 10 μL of mixture of 2× detection mix [(EU3+Cryptate (1×)+Streptavidin-XL665 (final concentration: 62.5 nM) (HTRF KinEASE-TK kit Cat #62TK0PEC)] is added to the assay plate, shaken and incubated at 26.5° C. for 60 min. Plates are then read on a Perkin Elmer Envision for HTRF signal (665 nm reading/615 nm reading). After normalization to untreated controls, the percent inhibition of the HTRF signal at each compound concentration is calculated. The plot of percent inhibition versus the log of compound concentration is fit with a 4-parameter dose response equation to calculate IC50 values.

[3] = molecular target: T3, JAK1-JH1 (Homo sapiens, UniProt P23458); experiment: HTRF-based selectivity assay, JAK1 catalytic domain; format: biochemical; details: kinase domain (JH1), ATP 21.43 μM
T3 construct: recombinant purified His or GST-tagged catalytic domain for each enzyme; made in house
Protocol: as §2

[4] = molecular target: T4, JAK2-JH1 (Homo sapiens, UniProt O60674); experiment: HTRF-based selectivity assay, JAK2 catalytic domain; format: biochemical; details: kinase domain (JH1), ATP 14.7 μM
T4 construct: recombinant purified His or GST-tagged catalytic domain for each enzyme; made in house
Protocol: as §2

[5] = molecular target: T5, JAK3-JH1 (Homo sapiens, UniProt P52333); experiment: HTRF-based selectivity assay, JAK3 catalytic domain; format: biochemical; details: kinase domain (JH1), ATP 2.12 μM
T5 construct: recombinant purified His or GST-tagged catalytic domain for each enzyme; purchased Carna biosciences 08-046
Protocol: as §2

[6] = tested on: IL-2; experiment: Selectivity assay (SEAP) IL-2 reporter cells; format: cell-based; details: Homo sapiens, IL-2 reporter cells on HEK293 background, read-out: Selectivity assays (SEAP) nM or E-Max % IL-2
[7] = tested on: IFN-γ; experiment: Selectivity assay (SEAP) IFN-γ reporter cells; format: cell-based; details: Homo sapiens, IFN-γ reporter cells on HEK293 background, read-out: Selectivity assays (SEAP) nM or E-Max % IFN-γ
[8] = tested on: IFN-γ-pSTAT1; experiment: STAT phosphorylation assay IFN-γ-pSTAT1; format: cell-based; details: Homo sapiens, 0.25 h; IFN-γ (50 ng/ml) 15 min, phospho-STAT1 Western blot normalized to GAPDH; read-out: Selectivity assays (STATs) % Inhibition IFN-γ-pSTAT1
Protocol: (§3) 0.3 to 0.5×10^6 Reporter cells (IL-23, IL-2, IFNα or IFNγ on HEK293 background purchased from InvivoGen) were seeded per well in 0.8 mL of DMVEM cell medium supplemented with 100 U/ml-100 μg/ml Pen-Strep and 10% FBS in 12 or 6-well plates and incubated overnight at 370 C, 5% CO2, 95% humidity. 0.1 mL test compounds serially diluted in DMSO and further diluted (10×) in intermediate plate containing cell treatment medium were prepared and added to the wells. The plates were incubated at 37° C. for 1 hr. Control wells contained 1′% DMSO prepared in cell medium. Post incubation, respective reporter cells were stimulated with 0.1 mL of either IL-23 (50 ng/ml; Miltenyl Biotech, cat #130-095-758) for 45 min or IL-2 (20 ng/ml) (Miltenyl Biotech, cat #130-097-742) for 15 min or IFNα/β (10 ng/ml) (Invivogen, cat #rcyc-hifna2b) for 15 min or IFN-γ (50 ng/ml) (Invivogen, cat #rcyec-hifng) for 15 min. Post stimulation cells were washed with DPBS once and lysed with 100 μL of RIPA buffer and placed on ice for 5 min. The lysates were then transferred to 1.5 mL Eppendorf tubes and centrifuged for 5 minutes at 10000 rpm at 4° C. and the supernatants either stored at −80° C. or used for protein estimation.
Samples were diluted 5× in cell lysis buffer and total protein concentration was determined in 96-well using Bradford Protein Assay following manufacturer's instructions. Western blot assay was performed using Protein Simple Wes Master Kit (SM-W004/DM-001) and device, following manufacturer's instructions. 1 to 2 mg/mL of total proteins were loaded per sample in 4 μL volume; phospho-STAT1, 3 or 5 antibodies (1:25) and GAPDH antibodies were diluted as indicated.
(§4) Western blot results were analysed using Compass 2.7.1 software and phospho-STAT quantity (AUC values) was normalized to GAPDH quantity (AUC values) for each sample.

[9] = molecular target: T1, TYK2; experiment: HEK-Blue IL-23 reporter assay (SEAP) for TYK2 pseudokinase inhibition; format: cell-based; set-up: HEK-Blue™ IL-23 and IFNα/β cells with a stably-integrated cytokine receptor and STAT3 or STAT1; host or cells: HEK-Blue IL-23 / HEK-Blue IFNα/β cells (HEK293 background); details: HEK-Blue IL-23 cells, 10 ng/mL human recombinant IL-23, SEAP reporter; read-out: IL23 IC50
Summary of the method: as §1

[10] = tested on: IL-2-pSTAT5; experiment: STAT phosphorylation assay IL-2-pSTAT5; format: cell-based; details: Homo sapiens, 0.25 h; IL-2 (20 ng/ml) 15 min, phospho-STAT5 Western blot normalized to GAPDH; read-out: Selectivity assays (STATs) % Inhibition IL-2-pSTAT5
Protocol: as §3, with “The lysates were then transferred to 1.5 mL Eppendorf tubes and centrifuged for 5 minutes at 10000 rpm at 4° C. and the supernatants either stored at −80° C. or used for protein estimation.” left out
Samples were diluted 5× in cell lysis buffer and total protein concentration was determined in 96-well using Bradford Protein Assay following manufacturer's instructions. […]
as §4

T3 sequence (P23458 875-1153 limits assumed): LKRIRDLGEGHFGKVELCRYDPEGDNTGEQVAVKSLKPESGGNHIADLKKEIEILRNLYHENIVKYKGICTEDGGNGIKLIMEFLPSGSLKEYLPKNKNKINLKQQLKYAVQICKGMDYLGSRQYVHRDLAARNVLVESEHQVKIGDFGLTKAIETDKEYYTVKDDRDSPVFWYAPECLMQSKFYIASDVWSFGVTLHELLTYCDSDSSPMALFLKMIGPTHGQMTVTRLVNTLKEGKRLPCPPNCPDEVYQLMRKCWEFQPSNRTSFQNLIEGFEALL
T5 sequence (P52333 822-1111 limits assumed): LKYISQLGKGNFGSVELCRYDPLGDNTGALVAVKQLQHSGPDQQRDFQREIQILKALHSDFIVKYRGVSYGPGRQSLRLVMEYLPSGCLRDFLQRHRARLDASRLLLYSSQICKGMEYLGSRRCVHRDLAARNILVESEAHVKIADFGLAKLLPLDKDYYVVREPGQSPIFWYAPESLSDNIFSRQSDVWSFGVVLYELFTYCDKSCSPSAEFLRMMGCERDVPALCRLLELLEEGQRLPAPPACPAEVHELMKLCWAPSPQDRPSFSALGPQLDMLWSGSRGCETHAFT
T4 sequence (O60674 849-1124 limits assumed): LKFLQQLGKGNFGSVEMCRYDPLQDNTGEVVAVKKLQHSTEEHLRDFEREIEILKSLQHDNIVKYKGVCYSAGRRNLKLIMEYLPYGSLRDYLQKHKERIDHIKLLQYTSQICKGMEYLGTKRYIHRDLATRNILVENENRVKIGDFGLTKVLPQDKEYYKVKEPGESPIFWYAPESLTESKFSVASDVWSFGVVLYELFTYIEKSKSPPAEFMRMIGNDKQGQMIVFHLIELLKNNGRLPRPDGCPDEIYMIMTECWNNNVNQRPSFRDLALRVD
T1 sequence (P29597 whole entry): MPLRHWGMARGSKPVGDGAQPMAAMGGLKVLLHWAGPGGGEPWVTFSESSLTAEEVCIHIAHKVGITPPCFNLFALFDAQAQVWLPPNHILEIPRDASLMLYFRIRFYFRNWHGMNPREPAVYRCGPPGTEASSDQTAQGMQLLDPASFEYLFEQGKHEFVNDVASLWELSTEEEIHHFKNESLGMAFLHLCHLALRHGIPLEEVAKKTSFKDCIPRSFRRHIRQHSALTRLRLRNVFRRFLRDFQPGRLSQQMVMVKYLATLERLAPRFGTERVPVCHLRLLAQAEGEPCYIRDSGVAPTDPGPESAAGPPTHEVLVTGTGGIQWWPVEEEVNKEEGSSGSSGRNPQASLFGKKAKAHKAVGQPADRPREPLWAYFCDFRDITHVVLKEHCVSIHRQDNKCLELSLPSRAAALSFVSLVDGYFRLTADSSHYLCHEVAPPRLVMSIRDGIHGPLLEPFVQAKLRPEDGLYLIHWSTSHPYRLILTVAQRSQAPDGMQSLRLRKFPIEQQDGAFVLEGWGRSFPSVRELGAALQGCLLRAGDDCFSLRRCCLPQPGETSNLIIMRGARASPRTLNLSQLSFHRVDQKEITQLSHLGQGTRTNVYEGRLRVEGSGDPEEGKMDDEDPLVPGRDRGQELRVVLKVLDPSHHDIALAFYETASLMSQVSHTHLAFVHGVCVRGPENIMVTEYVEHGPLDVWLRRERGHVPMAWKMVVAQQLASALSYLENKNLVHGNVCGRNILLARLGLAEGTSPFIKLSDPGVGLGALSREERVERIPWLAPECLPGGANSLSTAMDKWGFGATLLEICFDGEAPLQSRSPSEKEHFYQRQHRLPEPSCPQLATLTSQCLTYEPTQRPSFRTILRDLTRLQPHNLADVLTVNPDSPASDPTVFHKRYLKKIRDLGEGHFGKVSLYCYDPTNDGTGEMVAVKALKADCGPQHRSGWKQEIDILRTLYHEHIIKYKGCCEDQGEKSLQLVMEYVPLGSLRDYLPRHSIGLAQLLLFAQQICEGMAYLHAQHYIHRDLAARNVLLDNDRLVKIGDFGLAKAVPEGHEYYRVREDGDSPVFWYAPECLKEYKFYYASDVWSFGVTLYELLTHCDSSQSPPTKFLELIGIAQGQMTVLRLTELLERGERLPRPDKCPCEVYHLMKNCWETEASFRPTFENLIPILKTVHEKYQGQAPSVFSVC

| Compound | IC50 [1] [µM] | IC50 [2] [µM] | IC50 [3] [µM] | IC50 [4] [µM] | IC50 [5] [µM] | IC50 [6] [nM] | IC50 [7] [nM] | IC50 [8] [µM] | IC50 [9] [µM] | IC50 [10] [µM] |
| --- | --- | --- | --- | --- | --- | --- | --- | --- | --- | --- |
| O=C(Nc1cc2c(cn1)c(=O)[nH]n2-c1ccccc1)C1CC1 [Compound I-1, N-(3-oxo-1-phenyl-2,3-dihydro-1H-pyrazolo[4,3-c]pyridin-6-yl)cyclopropanecarboxamide] | < 10 | 30 to 90 | 30 to 90 | 30 to 90 | 10 to 30 | > 90000 | 30000 to 90000 | > 90 | < 10 |  |
| Cc1cc(Nc2cc3c(cn2)c(=O)[nH]n3-c2ccccc2)nc(C)n1 [Compound I-3, 6-((2,6-dimethylpyrimidin-4-yl)amino)-1-phenyl-1,2-dihydro-3H-pyrazolo[4,3-c]pyridin-3-one] | < 10 | 10 to 30 | > 90 | < 10 | < 10 | 30000 to 90000 | 10000 to 30000 | > 90 | < 10 | > 90 |
| COc1cccc(-n2[nH]c(=O)c3cnc(Nc4cc(C)nc(C)n4)cc32)c1 [Compound I-17, 6-((2,6-dimethylpyrimidin-4-yl)amino)-1-(3-methoxyphenyl)-1,2-dihydro-3H-pyrazolo[4,3-c]pyridin-3-one] | < 10 | 30 to 90 | > 90 | 10 to 30 | 10 to 30 | > 90000 | 30000 to 90000 | > 90 | < 10 | 30 to 90 |
| Cc1cc(Nc2cc3c(cn2)c(=O)[nH]n3-c2ccc(OCC(F)(F)F)cc2)nc(C)n1 [Compound I-73, 6-((2,6-dimethylpyrimidin-4-yl)amino)-1-(4-(2,2,2-trifluoroethoxy)phenyl)-1,2-dihydro-3H-pyrazolo[4,3-c]pyridin-3-one] | < 10 | > 90 | > 90 | > 90 | > 90 | > 90000 | > 90000 |  | < 10 |  |
| N#Cc1ccc(-n2[nH]c(=O)c3cnc(Nc4ccc(F)cn4)cc32)cc1Cl [Compound I-88, 2-chloro-4-(6-((5-fluoropyridin-2-yl)amino)-3-oxo-2,3-dihydro-1H-pyrazolo[4,3-c]pyridin-1-yl)benzonitrile] | < 10 | > 90 | > 90 | > 90 | > 90 | > 90000 | > 90000 |  | < 10 |  |
| Cc1cc(Nc2cc3c(cn2)c(=O)[nH]n3-c2ccc(OC(F)(F)F)c(F)c2)nc(C)n1 [Compound I-94, 6-((2,6-dimethylpyrimidin-4-yl)amino)-1-(3-fluoro-4-(trifluoromethoxy)phenyl)-1,2-dihydro-3H-pyrazolo[4,3-c]pyridin-3-one] | < 10 | > 90 | > 90 | > 90 | > 90 | > 90000 | > 90000 |  | < 10 |  |
| O=c1[nH]n(-c2ccc(OC(F)(F)F)c(F)c2)c2cc(Nc3ccc(F)cn3)ncc12 [Compound I-95, 1-(3-fluoro-4-(trifluoromethoxy)phenyl)-6-((5-fluoropyridin-2-yl)amino)-1,2-dihydro-3H-pyrazolo[4,3-c]pyridin-3-one] | < 10 | > 90 | > 90 | > 90 | > 90 | > 90000 | > 90000 |  | < 10 |  |
